US7569578B2, “Heterocyclic anti-migraine agents” (Bristol-Meyers Squibb Company, priority 2003, dated 2009)

What follows are compounds tested against T1, Human CGRP1 Receptor (Homo sapiens, UniProt O60894+Q16602) (assay: CGRP Binding Assay ([125I]-CGRP radioligand displacement, SK-N-MC membrane homogenate)). Conditions: [125I]-CGRP displacement, SK-N-MC homogenate, room temperature 2 h; read-out: Human CGRP1 Receptor IC50.
T1 construct: endogenous in cells; host or cells: SK-N-MC cells (membrane homogenate)
T1 sequence (Q16602 23-461): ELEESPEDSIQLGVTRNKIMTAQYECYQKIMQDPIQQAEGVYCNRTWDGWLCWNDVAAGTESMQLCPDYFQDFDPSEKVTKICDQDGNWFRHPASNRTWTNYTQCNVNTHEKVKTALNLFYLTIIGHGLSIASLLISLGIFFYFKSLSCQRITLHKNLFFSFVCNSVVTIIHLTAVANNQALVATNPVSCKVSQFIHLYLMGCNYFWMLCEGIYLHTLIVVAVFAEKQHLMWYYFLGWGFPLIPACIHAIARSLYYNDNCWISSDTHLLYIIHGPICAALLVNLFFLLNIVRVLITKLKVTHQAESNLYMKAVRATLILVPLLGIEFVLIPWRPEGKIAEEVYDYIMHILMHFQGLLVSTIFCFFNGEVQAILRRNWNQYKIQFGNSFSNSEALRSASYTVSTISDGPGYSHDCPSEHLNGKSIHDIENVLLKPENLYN
T1 sequence (O60894 27-148): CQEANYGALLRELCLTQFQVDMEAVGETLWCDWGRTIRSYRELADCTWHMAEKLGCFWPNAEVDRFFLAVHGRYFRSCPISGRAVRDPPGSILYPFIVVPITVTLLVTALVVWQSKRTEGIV
Cc1cc(CC(NC(=O)N2CCC(N3Cc4ccccc4NC3=O)CC2)c2nccn2-c2ccccc2[N+](=O)[O-])cc2cn[nH]c12 (racemic) [Example 79, (±)-N-(2-(7-Methyl-1H-indazol-5-yl)-1-(1-(2-nitrophenyl)-1H-imidazol-2-yl)ethyl)-4-(2-oxo-1,2-dihydroquinazolin-3(4H)-yl)piperidine-1-carboxamide] gave an IC50 of less than 0.01 µM. In the case of Cc1cc(CC(OC(=O)N2CCC(N3Cc4cccc(F)c4NC3=O)CC2)c2cccnc2)cc2cn[nH]c12 (stereo not shown) [Example 59, 2-(7-Methyl-1H-indazol-5-yl)-1-(pyridin-3-yl)ethyl 4-(8-fluoro-2-oxo-1,2-dihydroquinazolin-3(4H)-yl)piperidine-1-carboxylate], the IC50 is reported as 0.1 to 1 µM. Cc1cc(CC(OC(=O)N2CCC(N3Cc4ccccc4NC3=O)CC2)c2cc(C(=O)N3CCCCC3)ccn2)cc2cn[nH]c12 (racemic) [Example 49, (±)-2-(7-Methyl-1H-indazol-5-yl)-1-(4-(piperidine-1-carbonyl)pyridin-2-yl)ethyl 4-(2-oxo-1,2-dihydroquinazolin-3(4H)-yl)piperidine-1-carboxylate] was tested, and the IC50 was less than 0.01 µM. Cc1cc(CC(NC(=O)N2CCC(N3Cc4ccccc4NC3=O)CC2)c2nccn2Cc2cccc(C(=O)O)c2)cc2cn[nH]c12 (racemic) [Example 76, (±)-3-((2-(2-(7-Methyl-1H-indazol-5-yl)-1-(4-(2-oxo-1,2-dihydroquinazolin-3(4H)-yl)piperidine-1-carboxamido)ethyl)-1H-imidazol-1-yl)methyl)benzoic acid] showed an IC50 of less than 0.01 µM. Cc1cc(CC(NC(=O)N2CCC(N3Cc4cccc(F)c4NC3=O)CC2)c2nnn[nH]2)cc2cn[nH]c12 (racemic) [Example 80, (±)-4-(8-Fluoro-2-oxo-1,2-dihydroquinazolin-3 [4H]-yl)-N-(2{7-methyl-1H-indazol-5-yl}-1-{1H-tetrazol-5-yl}ethyl)piperidin-1-carboxamide] showed an IC50 of 0.1 to 1 µM. Cc1cc(CC(CC(=O)N2CCC(N3Cc4ccccc4NC3=O)CC2)c2ccc(C=O)cn2)cc2cn[nH]c12 (racemic) [Example 28, (±)-6-(1-(7-Methyl-1H-indazol-5-yl)-4-oxo-4-(4-(2-oxo-1,2-dihydroquinazolin-3(4H)-yl)piperidin-1-yl)butan-2-yl)nicotinaldehyde] was tested, and the IC50 was less than 0.01 µM. For Cc1cc(CC(NC(=O)N2CCC(N3Cc4ccccc4NC3=O)CC2)c2ncc(Br)n2Cc2cc(F)cc(F)c2)cc2c[nH]nc12 (racemic) [Example 88, (±)-N-(1-(1-(3,5-Difluorobenzyl)-5-bromo-1H-imidazol-2-yl)-2-(7-methyl-2H-indazol-5-yl)ethyl)-4-(2-oxo-1,2-dihydroquinazolin-3(4H)-yl)piperidine-1-carboxamide], the IC50 was less than 0.01 µM. For Cc1cc(CC(NC(=O)N2CCC(N3Cc4ccccc4NC3=O)CC2)c2cc([N+](=O)[O-])ccn2)cc2cn[nH]c12 (racemic) [Example 32, (±)-N-(2-(7-Methyl-1H-indazol-5-yl)-1-(4-nitropyridin-2-yl)ethyl)-4-(2-oxo-1,2-dihydroquinazolin-3(4H)-yl)piperidine-1-carboxamide], the IC50 was less than 0.01 µM. In the case of Cc1cc(C[C@@H](OC(=O)N2CCC(c3cc4ccccc4[nH]c3=O)CC2)c2nc(-c3ccc(F)cc3)no2)cc2cn[nH]c12 [Example 100, (R)-1-(3-(4-Fluorophenyl)-1,2,4-oxadiazol-5-yl)-2-(7-methyl-1H-indazol-5-yl)ethyl 4-(2-oxo-1,2-dihydroquinolin-3-yl)piperidine-1-carboxylate], the IC50 is reported as 0.1 to 1 µM. Work on Cc1noc(C(CC(=O)N2CCC3(CC2)OC(=O)Nc2ccccc23)Cc2cc(C)c3[nH]ncc3c2)n1 (racemic) [Example 9, (±)-3-{1-[3-(3-Methyl-[1,2,4]oxadiazol-5-yl)-4-(7-methyl-1H-indazol-5-yl)-butyryl]-4,4′-piperidinyl}-1′,2′-dihydro-2′-oxospiro-[4H-3′,1-benzoxazine] yielded an IC50 of 0.1 to 1 µM. With Cc1cc(CC(OC(=O)N2CCC(N3Cc4ccccc4NC3=O)CC2)c2cc(C=O)ccn2)cc2cn[nH]c12 (racemic) [Example 47, (±)-1-(4-Formylpyridin-2-yl)-2-(7-methyl-1H-indazol-5-yl)ethyl 4-(2-oxo-1,2-dihydroquinazolin-3(4H)-yl)piperidine-1-carboxylate] the IC50 was less than 0.01 µM. With CCc1cc(CC(NC(=O)N2CCC(N3Cc4ccccc4NC3=O)CC2)c2nnnn2C)cc2c(C)n[nH]c12 (racemic) [Example 17, (±)-4-(2-Oxo-1,4-dihydro-2H-quinazolin-3-yl)-piperidine-1-carboxylic acid [2-(7-ethyl-3-methyl-1H-indazol-5-yl)-1-(1-methyl-1H-tetrazol-5-yl)-ethyl]-amide] the IC50 was 0.01 to 0.1 µM. In the case of Cc1cc(CC(OC(=O)N2CCC(N3Cc4cccc(F)c4NC3=O)CC2)c2cccc(Br)n2)cc2cn[nH]c12 (racemic) [Example 39, (±)-1-(6-Bromopyridin-2-yl)-2-(7-methyl-1H-indazol-5-yl)ethyl 4-(8-fluoro-2-oxo-1,2-dihydroquinazolin-3(4H)-yl)piperidine-1-carboxylate], the IC50 is reported as less than 0.01 µM.
